Laboratory results reported in US6930314B2, “Light detection device” (Molecular Devices Corporation, priority 2000, dated 2005).

System: CHO ml cells
Test: Calcium flux assay
Type: cell-based
Details: CHO ml cells in 384-well microplate loaded with fluorescent calcium ion indicator; carbachol 10 nM, 100 nM, 10 μM; single selected well, frames about two seconds apart
Procedure: This example, illustrated in FIGS. 6 and 7, describes calcium flux assays conducted using an apparatus constructed in accordance with aspects of the invention.
Cultured CHO ml cells were grown overnight in a 384-well microplate, then loaded with a cell-permeant form of a fluorescent calcium ion indicator for 1 hour. […] The manual addition of carbachol (a calcium flux stimulant) in 10 nM, 100 nM, and 10 μM concentrations was used to mimic small, medium, and large sustained responses.
The figure records the average light intensity in a single selected well as a function of frame number (each frame taken approximately two seconds apart), where the selected well was one to which carbachol was added.
Here, no sustained increase in signal strength was observed, although there were small fluctuations due to shot-to-shot variations in illumination laser intensity.

C[N+](C)(C)CCOC(N)=O [carbachol]
fluorescence signal (calcium flux response) after addition of carbachol: rapid increase in the fluorescence signal over the first few frames, with a slow decay
